{"source": "paper PMC3706879", "about": "“The neurotrophic compound J147 reverses cognitive impairment in aged Alzheimer's disease mice” (Alzheimer's Research & Therapy, 2013)", "key": {"[1]": {"system": "BDNF", "set-up": "method as in PMID 21343524", "conditions": "rat traumatic brain injury models; cited from earlier work"}, "[2]": {"system": "C57BL/6J mice", "assay": "Y-maze, scopolamine induced memory impairment", "format": "in vivo", "conditions": "scopolamine 1 mg/kg i.p.; J147 200 ppm, donepezil 20 ppm in food for two weeks", "experimental": "(§1) A total of 60 male mice aged eight weeks were housed 4 per cage and were divided into five groups with 12 mice per group. Treatments were administered in the food (TestDiet® 5015, Richmond, IN, USA) for a period of two weeks before commencement of behavioral testing. […] Following two weeks of treatment, memory impairment was induced by intraperitoneal (i.p.) injection of scopolamine (1 mg/kg) 30 minutes prior to each of the following behavioral tests: Y-maze, probe trial of the water maze and contextual and cued fear conditioning. Mice were allowed to rest for two days between each behavior test. All mice received scopolamine except for one of the control groups, which received saline as a control. Mice were sacrificed 24 hours after the last behavioral test for tissue harvesting.\nSpontaneous alternation, the tendency to alternate free choices in a Y-maze (three arms), is a model for studying short term working memory in mice. Mice were injected with 1 mg/kg of scopolamine or saline 30 minutes prior to testing. Then each mouse was placed in the center of the Y and arm entries were recorded by video camera and the order of entries were recorded for the first 15 entries. Spontaneous alternations are defined as consecutive triplets of different arm choices."}, "[3]": {"system": "C57BL/6J mice", "assay": "two-day water maze, scopolamine induced memory impairment", "format": "in vivo", "conditions": "scopolamine 1 mg/kg i.p.; J147 200 ppm, donepezil 20 ppm in food for two weeks", "experimental": "as §1\nSpatial memory was determined using the two-day water maze in 23-month-old huAPPswe/PS1 transgenic mice fed J147 at 200 ppm in food for the previous three months. The protocol was adapted from a publication by Gulinello and colleagues. Water temperature remained at 27°C throughout the experiment. […] The time it took each mouse to find the hidden platform was measured as escape latency. […] All trials were recorded using the EthoVision Software and statistics were computed using GraphPad Instat software (GraphPad Software, San Diego, CA, USA)."}, "[4]": {"system": "C57BL/6J mice", "assay": "fear conditioning, scopolamine induced memory impairment", "format": "in vivo", "conditions": "scopolamine 1 mg/kg i.p.; J147 200 ppm, donepezil 20 ppm in food; vs scopolamine", "experimental": "as §1\nFear conditioning to either a cue or a context represents a form of associative learning. The read-out that is measured in contextual and cued fear conditioning is a freezing response that occurs following the pairing of an unconditioned stimulus (US), such as a foot shock, with a conditioned stimulus (CS), such as a particular context or cue (tone). The mouse will freeze if it remembers and associates that environment with the aversive stimulus. The hippocampus and the amygdala are required for fear memory where the hippocampus is involved in the formation and retrieval of context fear associations and the amygdala is involved in conditioning and recall of associations to contextual and discrete cues. This assay used fear conditioning chambers from Med Associates Inc. with Video Freeze Software (Med Associates Inc, St. Albans, VT, USA). On Day 1, mice were trained by allowing them to explore the chamber for 120 sec, mice were then presented with a 30-sec tone (2 kHz with 85 dB intensity) immediately followed by a 2-sec foot shock (0.7 mA). The tone-shock pairing was repeated following a 30-sec interval and the mice were again allowed to explore for 120 sec before removing them from the chamber. On Day 2, contextual memory, which requires a functioning hippocampus, was tested by placing the mice in the chambers and allowing them to explore for the same length of time as the previous day but without the tone and the shock. On Day 3, cued or emotional memory was tested, which relies on both hippocampus and amygdala. […] On Day 2, the time spent freezing is measured over the entire time in the chamber. […] The percentage of time spent freezing by each mouse is averaged per group and then groups can be compared and P-values calculated to determine statistical significance. On Day 3, the percentage of time spent freezing during the two tones is averaged per group, and then groups can be compared and P-values calculated to determine statistical significance. […]"}}}
{"smiles": "COc1cc(/C=C/c2cc(/C=C/c3ccc(O)c(OC)c3)n(-c3ccccc3)n2)ccc1O", "note": "[CNB-001]", "values": [{"measurement": "BDNF levels", "setting": "[1]", "result": "increases BDNF levels"}]}
{"smiles": "COc1cc2c(cc1OC)C(=O)C(CC1CCN(Cc3ccccc3)CC1)C2", "note": "(centres unmarked) [donepezil, reference compound]", "values": [{"measurement": "short-term working memory (spontaneous alternations, Y maze)", "setting": "[2]", "result": "improve short-term working memory"}, {"measurement": "spatial memory (time to find hidden platform)", "setting": "[3]", "result": "failed to rescue the deficit"}, {"measurement": "contextual memory (freezing Day 2)", "setting": "[4]", "result": "did not improve memory"}, {"measurement": "cued memory (freezing in response to the tone, Day 3)", "setting": "[4]", "result": "neither effect was significant"}]}
